Experimental data reported in paper PMC6897958, “Structural basis of ligand selectivity and disease mutations in cysteinyl leukotriene receptors” (Nature Communications, 2019).
“Also recorded” adds a separate entry of the source.

Experiments:
CysLT2R wild type = target: T1, CysLT2R wild type (Homo sapiens, UniProt Q9NS75); assay: IP1 production assay (Cisbio IP-One), HEK293 cells transfected with wild-type CysLT2R; format: cell-based
T1 construct: host or cells: HEK293 (ATCC CRL-1573)
Procedure: (§1) For CysLT2R functional assays, the initial CysLT2R wild-type gene with an N-terminal 3 × HA tag cloned into pcDNA3.1+ (Invitrogen) at EcoRI(5′) and XhoI(3′) was purchased from cDNA.org. All further gene modifications (point mutations, truncations, or partner protein fusion) were introduced by overlapping PCR. Sequences of all primers used in this work are listed in Supplementary Table 4.
The Cisbio IP-One kit was used according to the manufacturer’s instructions. […] At 48 h post transfection, the media was removed and the cells were washed with fresh Hank’s Balanced Salt Solution. […] After equilibration for 30 min at 37 °C, the cells were lysed with IP1-D2 and Ab-Crypt reagents in lysis buffer and then incubated for 1 h at RT. […] Data were plotted using the three parameters EC50/IC50 fit in GraphPad Prism 7 (San Diego, CA) and represent the mean ± s.d. of at least two independent experiments performed in quadruplicate.

CysLT2R E310^8.48A = target: T2, CysLT2R E310^8.48A (Homo sapiens, UniProt Q9NS75, E310A); assay: IP1 production assay, HEK293 transfected with CysLT2R mutant; format: cell-based
T2 construct: expressed in transfected cells; host or cells: HEK293 (ATCC CRL-1573)
Text: as §1
(§2) The Cisbio IP-One kit was used according to the manufacturer’s instructions. HEK293 cells (ATCC CRL-1573) were seeded onto poly-L-Lysine-coated 384-well plates at 20,000 cells per well and transfected with 40 ng of DNA coding for the wild-type CysLT2R or for the CysLT2R mutants using the X-treme-Gene HP (Roche) agent. At 48 h post transfection, the media was removed and the cells were washed with fresh Hank’s Balanced Salt Solution. […] After equilibration for 30 min at 37 °C, the cells were lysed with IP1-D2 and Ab-Crypt reagents in lysis buffer and then incubated for 1 h at RT. […] Data were plotted using the three parameters EC50/IC50 fit in GraphPad Prism 7 (San Diego, CA) and represent the mean ± s.d. of at least two independent experiments performed in quadruplicate.

CysLT2R E310^8.48G = target: T3, CysLT2R E310^8.48G (Homo sapiens, UniProt Q9NS75, E310G); assay: as above; format: cell-based
T3 construct: expressed in transfected cells; host or cells: HEK293 (ATCC CRL-1573)
Text: as §1, §2

CysLT2R F137^3.51Y = target: T4, CysLT2R F137^3.51Y (Homo sapiens, UniProt Q9NS75, F137Y); assay: as above; format: cell-based
T4 construct: expressed in transfected cells; host or cells: HEK293 (ATCC CRL-1573)
Text: as §1, §2

CysLT2R F260^6.48W = target: T5, CysLT2R F260^6.48W (Homo sapiens, UniProt Q9NS75, F260W); assay: as above; format: cell-based
T5 construct: expressed in transfected cells; host or cells: HEK293 (ATCC CRL-1573)
Text: as §1, §2

CysLT2R H284^7.32Q = target: T6, CysLT2R H284^7.32Q (Homo sapiens, UniProt Q9NS75, H284Q); assay: as above; format: cell-based
T6 construct: expressed in transfected cells; host or cells: HEK293 (ATCC CRL-1573)
Text: as §1, §2

CysLT2R I126^3.40V = target: T7, CysLT2R I126^3.40V (Homo sapiens, UniProt Q9NS75, I126V); assay: as above; format: cell-based
T7 construct: expressed in transfected cells; host or cells: HEK293 (ATCC CRL-1573)
Text: as §1, §2

CysLT2R K194 ^ECL2N = target: T8, CysLT2R K194 ^ECL2N (Homo sapiens, UniProt Q9NS75, K194N); assay: as above; format: cell-based
T8 construct: expressed in transfected cells; host or cells: HEK293 (ATCC CRL-1573)
Text: as §1, §2

CysLT2R K194 ^ECL2R = target: T9, CysLT2R K194 ^ECL2R (Homo sapiens, UniProt Q9NS75, K194R); assay: as above; format: cell-based
T9 construct: expressed in transfected cells; host or cells: HEK293 (ATCC CRL-1573)
Text: as §1, §2

CysLT2R K37^1.31R = target: T10, CysLT2R K37^1.31R (Homo sapiens, UniProt Q9NS75, K37R); assay: as above; format: cell-based
T10 construct: expressed in transfected cells; host or cells: HEK293 (ATCC CRL-1573)
Text: as §1, §2

CysLT2R L129^3.43Q = target: T11, CysLT2R L129^3.43Q (Homo sapiens, UniProt Q9NS75, L129Q); assay: as above; format: cell-based; details: for remaining activity at 1 µM: HEK293, Log[Antagonist] -6 M, L129Q constitutive activity, source data Supp Figure 6D; for remaining activity at 0.01 µM: HEK293, Log[Antagonist] -8 M; for remaining activity at 0.001 µM: HEK293, Log[Antagonist] -9 M; for reversal of constitutive activity (IP1 production) of L129^3.43Q: antagonist 1 µM
T11 construct: expressed in transfected cells; host or cells: HEK293 (ATCC CRL-1573)
T11 sequence (Q9NS75 1-346 L129Q): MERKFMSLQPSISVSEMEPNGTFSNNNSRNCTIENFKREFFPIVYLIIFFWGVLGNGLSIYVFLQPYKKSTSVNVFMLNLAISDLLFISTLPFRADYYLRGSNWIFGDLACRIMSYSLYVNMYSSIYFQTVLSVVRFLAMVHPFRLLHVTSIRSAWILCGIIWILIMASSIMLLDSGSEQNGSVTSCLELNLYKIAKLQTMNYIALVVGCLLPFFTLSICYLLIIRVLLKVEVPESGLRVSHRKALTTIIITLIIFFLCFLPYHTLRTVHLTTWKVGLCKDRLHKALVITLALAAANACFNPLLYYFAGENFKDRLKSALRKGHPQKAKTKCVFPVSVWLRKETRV
Text: as §1, §2

CysLT2R M201^5.38V = target: T12, CysLT2R M201^5.38V (Homo sapiens, UniProt Q9NS75, M201V); assay: as above; format: cell-based
T12 construct: expressed in transfected cells; host or cells: HEK293 (ATCC CRL-1573)
Text: as §1, §2

CysLT2R N202^5.39H = target: T13, CysLT2R N202^5.39H (Homo sapiens, UniProt Q9NS75, N202H); assay: as above; format: cell-based
T13 construct: expressed in transfected cells; host or cells: HEK293 (ATCC CRL-1573)
Text: as §1, §2

CysLT2R N301^7.49D = target: T14, CysLT2R N301^7.49D (Homo sapiens, UniProt Q9NS75, N301D); assay: as above; format: cell-based
T14 construct: expressed in transfected cells; host or cells: HEK293 (ATCC CRL-1573)
Text: as §1, §2

CysLT2R R267^6.55K = target: T15, CysLT2R R267^6.55K (Homo sapiens, UniProt Q9NS75, R267K); assay: as above; format: cell-based
T15 construct: expressed in transfected cells; host or cells: HEK293 (ATCC CRL-1573)
Text: as §1, §2

CysLT2R S169^4.56A = target: T16, CysLT2R S169^4.56A (Homo sapiens, UniProt Q9NS75, S169A); assay: as above; format: cell-based
T16 construct: expressed in transfected cells; host or cells: HEK293 (ATCC CRL-1573)
Text: as §1, §2

CysLT2R V135^3.49D = target: T17, CysLT2R V135^3.49D (Homo sapiens, UniProt Q9NS75, V135D); assay: as above; format: cell-based
T17 construct: expressed in transfected cells; host or cells: HEK293 (ATCC CRL-1573)
Text: as §1, §2

CysLT2R W51^1.45V = target: T18, CysLT2R W51^1.45V (Homo sapiens, UniProt Q9NS75, W51V); assay: as above; format: cell-based
T18 construct: expressed in transfected cells; host or cells: HEK293 (ATCC CRL-1573)
Text: as §1, §2

CysLT2R Y119^3.33F = target: T19, CysLT2R Y119^3.33F (Homo sapiens, UniProt Q9NS75, Y119F); assay: as above; format: cell-based
T19 construct: expressed in transfected cells; host or cells: HEK293 (ATCC CRL-1573)
Text: as §1, §2

CysLT2R Y127^3.41W = target: T20, CysLT2R Y127^3.41W (Homo sapiens, UniProt Q9NS75, Y127W); assay: as above; format: cell-based
T20 construct: expressed in transfected cells; host or cells: HEK293 (ATCC CRL-1573)
Text: as §1, §2

HEK293 cells = assay: Quantification of LTD4 degradation in IP1 assay (UPLC/MS); format: in vitro ADME; details: 10 µM LTD4 over HEK293 monolayer, 30 min, 37 °C, with or without L-Cys
Procedure: HEK293 cells were seeded in a 6-well plate at a density of 300,000 cells per well. Forty-eight hours after seeding, medium was removed, and cells were washed twice with PBS. […] After incubation, supernatant was filtered through a 0.22 µm PVDF filter and an internal standard was added before injection on UPLC/MS (Waters UPLC system coupled with a SQ detector 2 and a PDA eλ detector, using an Acquity UPLC BEH C18 column, 2.1 mm × 50 mm, 1.7 μm spherical size). UPLC chromatograms were recorded using the following gradient: water + 0.1% TFA and acetonitrile (0 → 0.2 min, 5% acetonitrile; 0.2 → 1.5 min, 5% → 95%; 1.5 → 1.8 min, 95%; 1.8 → 2.0 min, 95% → 5%; and 2.0 → 2.5 min, 5%). Quantification was done by determining the area under the curve (AUC) ratio of the tested compound over AUC of the internal standard. […] Quantification results are expressed as mean ± s.e.m. of three independent experiments.

[1] = read-out: IP1 production (normalized), single replicate values
[2] = L129Q, Supp Figure 6D, read-out: IP1 production (normalized), single replicate values

T7 sequence (Q9NS75 whole entry I126V): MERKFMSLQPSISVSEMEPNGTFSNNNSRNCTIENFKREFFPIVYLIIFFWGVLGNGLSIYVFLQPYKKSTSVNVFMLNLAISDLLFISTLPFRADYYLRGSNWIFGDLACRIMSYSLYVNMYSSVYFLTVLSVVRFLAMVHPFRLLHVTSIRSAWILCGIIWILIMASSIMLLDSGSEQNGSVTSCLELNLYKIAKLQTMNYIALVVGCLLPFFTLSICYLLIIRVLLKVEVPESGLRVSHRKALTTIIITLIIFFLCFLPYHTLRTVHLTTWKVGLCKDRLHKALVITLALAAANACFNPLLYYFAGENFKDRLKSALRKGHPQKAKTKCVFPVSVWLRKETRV
T9 sequence (Q9NS75 whole entry K194R): as the sequence (Q9NS75 whole entry I126V) above, with V126I, K194R counted along it
T14 sequence (Q9NS75 whole entry N301D): as the sequence (Q9NS75 whole entry I126V) above, with V126I, N301D counted along it
T18 sequence (Q9NS75 whole entry W51V): as the sequence (Q9NS75 whole entry I126V) above, with W51V, V126I counted along it
T4 sequence (Q9NS75 whole entry F137Y): as the sequence (Q9NS75 whole entry I126V) above, with V126I, F137Y counted along it
T15 sequence (Q9NS75 whole entry R267K): as the sequence (Q9NS75 whole entry I126V) above, with V126I, R267K counted along it
T2 sequence (Q9NS75 whole entry E310A): as the sequence (Q9NS75 whole entry I126V) above, with V126I, E310A counted along it
T3 sequence (Q9NS75 whole entry E310G): as the sequence (Q9NS75 whole entry I126V) above, with V126I, E310G counted along it
T13 sequence (Q9NS75 whole entry N202H): as the sequence (Q9NS75 whole entry I126V) above, with V126I, N202H counted along it
T6 sequence (Q9NS75 whole entry H284Q): as the sequence (Q9NS75 whole entry I126V) above, with V126I, H284Q counted along it
T1 sequence (Q9NS75 whole entry): as the sequence (Q9NS75 whole entry I126V) above, with V126I counted along it
T5 sequence (Q9NS75 whole entry F260W): as the sequence (Q9NS75 whole entry I126V) above, with V126I, F260W counted along it
T19 sequence (Q9NS75 whole entry Y119F): as the sequence (Q9NS75 whole entry I126V) above, with Y119F, V126I counted along it
T12 sequence (Q9NS75 whole entry M201V): as the sequence (Q9NS75 whole entry I126V) above, with V126I, M201V counted along it
T16 sequence (Q9NS75 whole entry S169A): as the sequence (Q9NS75 whole entry I126V) above, with V126I, S169A counted along it
T20 sequence (Q9NS75 whole entry Y127W): as the sequence (Q9NS75 whole entry I126V) above, with V126I, Y127W counted along it
T8 sequence (Q9NS75 whole entry K194N): as the sequence (Q9NS75 whole entry I126V) above, with V126I, K194N counted along it
T10 sequence (Q9NS75 whole entry K37R): as the sequence (Q9NS75 whole entry I126V) above, with K37R, V126I counted along it
T17 sequence (Q9NS75 whole entry V135D): as the sequence (Q9NS75 whole entry I126V) above, with V126I, V135D counted along it

IC50 (CysLT2R wild type) [nM]	IC50 (CysLT2R E310^8.48A) [nM]	IC50 (CysLT2R E310^8.48G) [nM]	IC50 (CysLT2R F137^3.51Y) [nM]	IC50 (CysLT2R F260^6.48W) [nM]	IC50 (CysLT2R H284^7.32Q) [nM]	IC50 (CysLT2R I126^3.40V) [nM]	IC50 (CysLT2R K194 ^ECL2N) [nM]	IC50 (CysLT2R K194 ^ECL2R) [nM]	IC50 (CysLT2R K37^1.31R) [nM]	remaining activity at 1 µM (CysLT2R L129^3.43Q; [1]) [%]	remaining activity at 0.01 µM (CysLT2R L129^3.43Q; [2]) [%]	remaining activity at 0.001 µM (CysLT2R L129^3.43Q; [2]) [%]	reversal of constitutive activity (IP1 production) of L129^3.43Q (CysLT2R L129^3.43Q)	IC50 (CysLT2R M201^5.38V) [nM]	IC50 (CysLT2R N202^5.39H) [nM]	IC50 (CysLT2R N301^7.49D) [nM]	IC50 (CysLT2R R267^6.55K) [nM]	IC50 (CysLT2R S169^4.56A) [nM]	IC50 (CysLT2R V135^3.49D) [nM]	Compound	further results
70 ± 20	18 ± 5	7 ± 6	70 ± 20	330 ± 100	270 ± 200	14 ± 5	32 ± 10	40 ± 20	280 ± 100	80.7	83.3	87.9	not reversed	60 ± 20	60 ± 30	110 ± 50	100 ± 30	16 ± 10	40 ± 30	O=C(O)CCCN1CC(C(=O)O)Oc2c(NC(=O)c3ccc(OCCCCOc4cccc(F)c4F)cc3F)cccc21 (stereo not drawn) [cpd 11c]	remaining activity at 0.1 µM (CysLT2R L129^3.43Q; HEK293, Log[Antagonist] -7 M, L129Q, Supp Figure 6D, read-out: IP1 production (normalized), single replicate values): 85.9%; remaining activity at 0.0001 µM (CysLT2R L129^3.43Q; HEK293, Log[Antagonist] -10 M, L129Q, Supp Figure 6D, read-out: IP1 production (normalized), single replicate values): 72.7%; remaining activity at 10 pM (CysLT2R L129^3.43Q; HEK293, Log[Antagonist] -11 M, L129Q, Supp Figure 6D, read-out: IP1 production (normalized), single replicate values): 64.1%; remaining activity at 1 pM (CysLT2R L129^3.43Q; HEK293, Log[Antagonist] -12 M, L129Q, Supp Figure 6D, read-out: IP1 production (normalized), single replicate values): 68%; IC50 (CysLT2R W51^1.45V): 160 ± 30 nM; IC50 (CysLT2R Y119^3.33F): 260 ± 100 nM; IC50 (CysLT2R Y127^3.41W): 44 ± 10 nM
–	–	–	–	–	–	–	–	–	–	–	–	–	–	–	–	–	–	–	–	CCCCC/C=C\C\C=C/C=C/C=C/[C@@H](SC[C@H](N)C(=O)NCC(=O)O)[C@@H](O)CCCC(=O)O [LTD4]	LTD4 conversion/degradation in functional assay (HEK293 cells): No LTD4 conversion was found; also recorded: No LTD4 degradation was observed
14 ± 6	8 ± 3	2 ± 1	15 ± 5	40 ± 20	230 ± 90	20 ± 10	8 ± 4	60 ± 30	80 ± 30	76.2	78.3	74.4	not reversed	30 ± 10	290 ± 100	170 ± 70	22 ± 9	10 ± 4	3 ± 3	O=C(O)CCCN1C[C@@H](C(=O)O)Oc2c(NC(=O)c3ccc(OCCCCc4cc(F)ccc4Cl)cc3)cccc21 [cpd 11a]	IC50 (CysLT2R W51^1.45V): 47 ± 10 nM; IC50 (CysLT2R Y119^3.33F): 100 ± 40 nM; IC50 (CysLT2R Y127^3.41W): 500 ± 400 nM
